Reference: patent publication US20060063759A1, “Tricyclic steroid hormone nuclear receptor modulators” (priority 2002, published 2006)
Like-named read-outs stand apart in the source and are kept apart here.

Experiments:
human MR = target: T1, human MR (Homo sapiens, UniProt P08235); assay: Mineralocorticoid Receptor Binding Assay ([3H]-aldosterone)
T1 construct: The full length human MR gene is cloned from a human kidney or human brain cDNA library; His tag from the pAcHLT vector (own knowledge); made in house; host or cells: Sf9 insect cells (baculovirus, pAcHLT transfer vector)
T1 sequence (P08235 1-984): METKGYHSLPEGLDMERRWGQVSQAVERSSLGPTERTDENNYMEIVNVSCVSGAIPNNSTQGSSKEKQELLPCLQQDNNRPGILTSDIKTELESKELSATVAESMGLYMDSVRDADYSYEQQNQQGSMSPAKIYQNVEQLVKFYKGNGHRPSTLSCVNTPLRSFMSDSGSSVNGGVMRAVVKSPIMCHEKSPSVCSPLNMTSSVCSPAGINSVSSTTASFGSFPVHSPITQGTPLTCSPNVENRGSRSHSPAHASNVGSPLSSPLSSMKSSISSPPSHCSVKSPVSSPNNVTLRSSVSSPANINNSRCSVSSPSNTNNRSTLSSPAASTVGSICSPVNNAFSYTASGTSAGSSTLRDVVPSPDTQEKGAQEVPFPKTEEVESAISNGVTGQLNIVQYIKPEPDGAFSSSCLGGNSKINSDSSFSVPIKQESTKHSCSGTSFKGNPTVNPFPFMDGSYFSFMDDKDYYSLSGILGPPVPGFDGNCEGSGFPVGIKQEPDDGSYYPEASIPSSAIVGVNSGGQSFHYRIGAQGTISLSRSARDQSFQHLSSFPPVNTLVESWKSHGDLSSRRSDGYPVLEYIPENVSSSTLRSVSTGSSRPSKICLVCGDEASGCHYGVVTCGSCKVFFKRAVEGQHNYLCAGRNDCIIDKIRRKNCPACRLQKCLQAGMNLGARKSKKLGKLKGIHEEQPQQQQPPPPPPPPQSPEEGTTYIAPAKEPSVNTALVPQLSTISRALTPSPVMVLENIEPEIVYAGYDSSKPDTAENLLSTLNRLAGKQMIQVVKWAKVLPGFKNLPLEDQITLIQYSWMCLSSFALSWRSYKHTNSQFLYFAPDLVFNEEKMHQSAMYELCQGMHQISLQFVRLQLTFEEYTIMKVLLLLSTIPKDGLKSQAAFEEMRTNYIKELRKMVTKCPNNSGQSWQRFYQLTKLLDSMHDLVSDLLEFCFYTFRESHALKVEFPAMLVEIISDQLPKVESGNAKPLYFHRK
Description: (§1) All ligands, radioligands, solvents, and reagents employed in the binding assays are readily available from commercial sources, or can be readily synthesized by the ordinarily skilled artisan.
The full length human MR gene is cloned from a human kidney or human brain cDNA library. […] The PCR reaction is performed in a final volume of 50 μl containing about 1 μl of a 50× stock solution of polymerase; about 1 μl of a 50× stock solution of dNTP; about 5 μl of an appropriate PCR buffer; about 1 μl of each primer; about […] of a H. kidney or H. brain cDNA library; and about 36 μl of water. The reaction is allowed to denature for about 30 seconds at 95 degrees Celsius, anneal for about 30 seconds at 55 degrees Celsius, and extend for about 5 minutes at 72 degrees Celsius, the sequence being repeated for a total of about 35 cycles. […] To extract the cDNA product from the agarose gel, the QIAEX II Gel Extraction protocol (QIAGEN, Inc.) is employed according to the manufacturer's instructions. Following extraction, the MR cDNA is cloned into an appropriate cloning vector (Zero Blunt TOPO PCR Cloning Kit Invitrogen, Inc.) and a pAcHLT-baculovinis transfer vector (B.D./Pharminogen), then expressed in SF9 insect cells, essentially according to manufacturer's instructions. Sf9 cells are grown at a scale where gram quantity cell pellets are obtained for subsequent use in the MR binding assay. Harvested cell pellets are lysed by repeated freeze-thaw cycles (about 4) in a suitable lysis buffer then centrifuged at about 1×10^3 G (with the supernatant being saved for future assays).
MR binding assays are performed in a final total volume of about 250 μl containing about 20-25 μg of protein and 0.5 nM of [^3H]-aldosterone plus varying concentrations of test compound or vehicle. The assay binding buffer consists of 30 mM sodium molybdate, 30 mM of TRIS-HCl, 5 mM sodium phosphate, 5 mM sodium pyrophosphate, and about 10% glycerol, pH=7.5.
Incubations are carried out at 4 degrees Celsius with shaking for about 16 hours. 200 μl aliquots of each incubation are filtered onto Millipore HA 0.45 micron 96-well filter plates, pre-moistened with cold 30 mM TRIS-HCl. The filter plates are suctioned dry with vacuum and immediately washed 3× with cold 30 mM TRIS-HCl. The plates are then punched out and the amount of receptor-ligand complex is determined by liquid scintillation counting using 4 ml of Ready Protein Plus™ liquid scintillation cocktail.
IC50 values (defined as the concentration of test compound required to decrease [^3H]-aldosterone binding by 50%/o) are then determined.

glucocorticoid receptor = target: T2, glucocorticoid receptor (Homo sapiens, UniProt P04150); assay: Glucocorticoid Receptor Binding Assay ([3H]-dexamethasone, A549 cell extract); settings: [3H]-dexamethasone binding, read-out: GR Ki
T2 construct: containing 50-200 ug of A549 cell extract and 1.86 nM [^3H]-dexamethasone; host or cells: A549 human lung epithelial cells (sonicated cell extract)
T2 sequence (P04150 1-777): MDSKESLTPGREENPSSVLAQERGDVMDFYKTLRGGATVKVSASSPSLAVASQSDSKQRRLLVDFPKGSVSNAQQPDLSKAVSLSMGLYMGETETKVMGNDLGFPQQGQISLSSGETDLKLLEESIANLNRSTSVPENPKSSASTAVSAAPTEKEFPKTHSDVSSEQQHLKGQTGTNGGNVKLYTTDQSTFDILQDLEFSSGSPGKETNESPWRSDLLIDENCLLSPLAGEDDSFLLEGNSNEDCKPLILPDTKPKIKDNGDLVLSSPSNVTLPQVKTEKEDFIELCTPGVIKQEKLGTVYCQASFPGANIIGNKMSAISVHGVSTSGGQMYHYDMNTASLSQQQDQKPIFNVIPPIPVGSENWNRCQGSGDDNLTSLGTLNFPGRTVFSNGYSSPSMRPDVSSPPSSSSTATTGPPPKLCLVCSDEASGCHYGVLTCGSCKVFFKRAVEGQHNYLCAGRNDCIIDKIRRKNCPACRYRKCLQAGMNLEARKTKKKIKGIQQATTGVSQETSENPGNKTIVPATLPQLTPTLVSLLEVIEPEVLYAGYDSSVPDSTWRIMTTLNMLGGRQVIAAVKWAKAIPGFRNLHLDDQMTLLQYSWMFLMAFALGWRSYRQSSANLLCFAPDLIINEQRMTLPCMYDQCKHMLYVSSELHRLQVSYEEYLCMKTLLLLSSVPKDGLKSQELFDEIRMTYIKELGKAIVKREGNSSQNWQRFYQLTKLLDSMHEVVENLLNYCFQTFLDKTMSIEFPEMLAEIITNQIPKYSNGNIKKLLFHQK
Description: as §1
A549 human lung epithelial cells (ATCC) are grown at a scale where gram quantity cell pellets are obtained. Harvested cell pellets are washed twice in cold phosphate buffered saline, centrifuged, and resuspended in cold assay binding buffer. The assay binding buffer consists of 10% glycerol, 50 mM Tris-HCl (pH7.2), 75 mM sodium chloride, 1.5 mM magnesium chloride, 1.5 mM EDTA, and 10 mM sodium molybdate. Cell suspensions were lysed via sonication, centrifuged, and the “extract” supernatant is snap frozen and stored at −80 C until needed.
GR binding assays are performed in a final volume of 140 ul containing 50-200 ug of A549 cell extract and 1.86 nM [^3H]-dexamethasone (Amersham) plus varying concentrations of test compound or vehicle. Briefly, assays are prepared at RT in 96-well Fisher 3356 plates, each well containing 100 ul of A549 cell extract, 20 ul of [^3H]-dexamethasone, and 20 ul of test compound/vehicle. Incubations are carried out at 4 degrees Celsius for 16 hours. After incubation, 70 ul of 3× dextran-coated charcoal solution is added to each reaction, mixed, and incubated for 8 minutes at RT. 3×-dextran-coated charcoal solution consists of 250 ml assay binding buffer, 3.75 g Norit A charcoal (Sigma), and 1.25 g dextran T-70 (Amersham). Charcoal/unbound radioligand complexes are removed by centrifugation of the plate and 140 ul of supernatant from each well is transferred to another 96 well Optiplate (Packard Instruments). 200 ul of Microscint-20 scinillant (Packard Instruments) is added to each well and amount of receptor bound radioligand is determined using Packard Instruments TopCount instrument.

[1] = [3H]-aldosterone binding, human MR expressed in Sf9 cells, read-out: MR Ki

`O=S(=O)(Nc1cccc(/C=C2/c3ccccc3CCc3sccc32)c1)c1ccccc1` [Example 503] was tested, and the Ki (human MR; [1]) was < 500 nM and the Ki (glucocorticoid receptor) was < 500 nM.
With `CS(=O)(=O)Nc1cccc(/C=C2\c3ccccc3CCc3cc(S(C)(=O)=O)ccc32)c1` [Example 392] the Ki (human MR; [1]) was < 500 nM and the Ki (glucocorticoid receptor) was < 500 nM.
With `CS(=O)(=O)Nc1cccc(C=C2c3ccccc3CCc3cc(O)c(O)cc32)c1` (mixture of isomers) [Example 171, N-[3-(2,3-Dihydroxy-10,11-dihydro-dibenzo[a,d]cyclohepten-5-ylidenemethyl)-phenyl]-methanesulfonamide] the Ki (human MR; [1]) was < 500 nM and the Ki (glucocorticoid receptor) was < 500 nM.
With `O=c1[nH]c2ccc(/C=C3/c4ccc(F)cc4CCc4ncsc43)cc2[nH]1` [Example 566] the Ki (human MR; [1]) was < 500 nM and the Ki (glucocorticoid receptor) was < 10000 nM.
`COc1ccc2c(c1)CCc1ccccc1C2=Cc1ccc(O)cc1` (mixture of isomers) [Example 168, 4-(2-Methoxy-10,11-dihydro-dibenzo[a,d]cyclohepten-5-ylidenemethyl)-phenol] was tested, and the Ki (human MR) was < 500 nM and the Ki (glucocorticoid receptor) was < 1000 nM.
In the case of `Nc1cccc(C=C2c3ccccc3CCc3ccsc32)c1` [Example 498], the Ki (human MR; [1]) is reported as < 500 nM and the Ki (glucocorticoid receptor) is reported as < 1000 nM.
For `O=S(=O)(Nc1cccc(C=C2c3ccccc3CCc3cc(Cl)ccc32)c1)c1cccs1` [Example 295], the Ki (human MR; [1]) was < 500 nM and the Ki (glucocorticoid receptor) was < 500 nM.
`O=c1[nH]c2cc(/C=C3\c4ccccc4COc4cc(F)ccc43)ccc2n1CCCN1CCOCC1` [Example 608, 5-(3-fluoro-6H-dibenzo[b,e]oxepin-11-ylidenemethyl)-1-(3-morpholin-4-yl-propyl)-1,3-dihydro-benzoimidazol-2-one] was tested, and the Ki (human MR; [1]) was < 500 nM and the Ki (glucocorticoid receptor) was < 10000 nM.
`CS(=O)(=O)Nc1cccc(/C=C2\c3ccccc3CCc3ncsc32)c1` [Example 556] was tested, and the Ki (human MR; [1]) was < 500 nM and the Ki (glucocorticoid receptor) was < 500 nM.
`CS(=O)(=O)Nc1csc(C=C2c3ccccc3CCc3ccccc32)n1` [Example 446] was tested, and the Ki (human MR; [1]) was < 500 nM and the Ki (glucocorticoid receptor) was < 500 nM.
For `COc1cccc2c1/C(=C\c1cccc(NS(C)(=O)=O)c1)c1ccccc1SC2` [Example 696], the Ki (human MR; [1]) was < 500 nM and the Ki (glucocorticoid receptor) was < 500 nM.
`CS(=O)(=O)Nc1cccc(C=C2c3ccccc3C3CC3c3ccccc32)c1` (stereo not shown) [Example 602] was tested, and the Ki (human MR; [1]) was < 500 nM and the Ki (glucocorticoid receptor) was < 500 nM.
`CN(C)S(=O)(=O)Nc1ccc(C=C2c3ccccc3CCc3ccccc32)cc1` [Example 113, Dimethylsulfamic acid [4-(10,11-dihydro-dibenzo[a,d]cyclohepten-5-ylidenemethyl)-phenyl]-amide] was tested, and the Ki (human MR; [1]) was < 500 nM and the Ki (glucocorticoid receptor) was < 500 nM.
`O=c1[nH]c2cc(C=C3c4ccc(F)cc4CCc4cc(F)ccc43)ccc2o1` [Example 458] was tested, and the Ki (human MR; [1]) was < 500 nM and the Ki (glucocorticoid receptor) was < 500 nM.
With `O=c1[nH]c2ccc(C=C3c4cc(Cl)ccc4COc4ccccc43)cc2[nH]1` [Example 715] the Ki (human MR; [1]) was < 500 nM and the Ki (glucocorticoid receptor) was < 1000 nM.
In the case of `O=c1[nH]c2cc(/C=C3/c4ccccc4CCc4c(Cl)cccc43)ccc2o1` [Example 221(a)], the Ki (human MR; [1]) is reported as < 500 nM and the Ki (glucocorticoid receptor) is reported as < 500 nM.
For `COc1ccc2c(c1)CSc1ccccc1C2=C(C)c1cccc(NS(C)(=O)=O)c1` [Example 840], the Ki (human MR; [1]) was < 500 nM and the Ki (glucocorticoid receptor) was < 500 nM.
With `O=[N+]([O-])c1cccc(/C=C2/c3ccccc3OCc3c(Cl)cccc32)c1` [Example 272, 7-Chloro-11-(3-nitro-benzylidene)-6,11-dihydro-dibenzo[b,e]oxepine] the Ki (glucocorticoid receptor) was < 10000 nM.
In the case of `O=S(=O)(Nc1cccc(/C=C2\c3ccccc3CSc3ccccc32)c1)c1ccc(Cl)c(Cl)c1` [Example 690], the Ki (glucocorticoid receptor) is reported as < 1000 nM.
`COc1cccc2c1SCc1ccccc1C2=Cc1cccc(NS(C)(=O)=O)c1` [Example 686] was tested, and the Ki (glucocorticoid receptor) was < 500 nM.
In the case of `CS(=O)(=O)Nc1cccc(/C=C2\c3ccccc3CCc3ccc(S(C)(=O)=O)cc32)c1` [Example 324], the Ki (glucocorticoid receptor) is reported as < 1000 nM.
In the case of `CCOc1ccc2c(c1)CCc1ccccc1C2=Cc1cccc(NS(C)(=O)=O)c1` [Example 331], the Ki (glucocorticoid receptor) is reported as < 500 nM.
With `CS(=O)(=O)Nc1cccc(C(C(=O)O)=C2c3ccccc3CCc3ccccc32)c1` [Example 754, (10,11-Dihydro-dibenzo[a,d]cyclohepten-5-ylidene)-(3-methanesulfonylamino-phenyl)-acetic acid] the Ki (glucocorticoid receptor) was < 500 nM.
In the case of `CCCOc1ccc2c(c1)CCc1ccccc1C2=Cc1cccc(NS(C)(=O)=O)c1` [Example 332], the Ki (glucocorticoid receptor) is reported as < 500 nM.
With `CCNC(=O)Nc1cccc(C=C2c3ccccc3CSc3c(C)cccc32)c1` [Example 689] the Ki (glucocorticoid receptor) was < 500 nM.
For `O=c1[nH]c2ccc(/C=C3/c4ccccc4COc4cc(F)ccc43)cc2[nH]1` [Example 631], the Ki (glucocorticoid receptor) was < 1000 nM.
